Reference: patent publication US20230157952A1, “METHOD FOR IMPROVING THE STABILITY OF A PHARMACEUTICAL COMPOSITION COMPRISING A HIGH PENETRATION DRUG, AND THE PHARMACEUTICAL COMPOSITION OBTAINED THEREFROM” (Techfields Inc., priority 2020, published 2023)

Legend:
[1] = Effect of temperature (and pH) on the stability of the solution (purity); type: physicochemical; conditions: 7% solution in water
[2] = Effect of concentration on the stability of the solution (purity over time)
[3] = 0.01 wt %, at 5° C. in 15% acetone
[4] = 0.1 wt %, at 5° C. in 15% acetone
[5] = 1 wt %, at 5° C. in 15% acetone
[6] = 3 wt %, at 5° C. in 15% acetone
[7] = 5 wt %, at 5° C. in 15% acetone
[8] = 7 wt %, at 5° C. in 15% acetone
[9] = 8 wt %, at 5° C. in 15% acetone
[10] = 10 wt %, at 5° C. in 15% acetone
[11] = 15 wt %, at 5° C. in 15% acetone
[12] = 20 wt %, at 5° C. in 15% acetone
[13] = 30 wt %, at 5° C. in 15% acetone
[14] = 50 wt %, at 5° C. in 15% acetone

Compound: CCN(CC)CCOC(=O)c1cc(-c2ccc(F)cc2F)ccc1OC(C)=O.Cl [2-(diethylamino)ethyl 5-(2,4-difluorophenyl)-2-acetoxybenzoate•HCl]
- Stability of the solution at a temperature higher than 40° C. and a pH lower than 3 or greater than 6 [1]: not stable
- Purity at day 0 [2, 3]: 98.2%
- Purity at day 3 [2, 3]: 93.9%
- Purity at day 7 [2, 3]: 88.1%
- Purity at day 15 [2, 3]: 80.3%
- Purity at day 22 [2, 3]: 73.7%
- Purity at day 28 [2, 3]: 67.9%
- Purity at day 60 [2, 3]: 48.1%
- Purity at day 90 [2, 3]: 30.0%
- Purity at day 0 [2, 4]: 98.3%
- Purity at day 3 [2, 4]: 95.1%
- Purity at day 7 [2, 4]: 93.1%
- Purity at day 15 [2, 4]: 89.0%
- Purity at day 22 [2, 4]: 85.3%
- Purity at day 28 [2, 4]: 82.3%
- Purity at day 60 [2, 4]: 70.5%
- Purity at day 90 [2, 4]: 61.2%
- Purity at day 0 [2, 5]: 98.4%
- Purity at day 3 [2, 5]: 97.0%
- Purity at day 7 [2, 5]: 95.9%
- Purity at day 15 [2, 5]: 94.0%
- Purity at day 22 [2, 5]: 92.2%
- Purity at day 28 [2, 5]: 89.7%
- Purity at day 60 [2, 5]: 79.4%
- Purity at day 90 [2, 5]: 71.9%
- Purity at day 0 [2, 6]: 98.5%
- Purity at day 3 [2, 6]: 97.7%
- Purity at day 7 [2, 6]: 96.6%
- Purity at day 15 [2, 6]: 94.9%
- Purity at day 22 [2, 6]: 92.1%
- Purity at day 28 [2, 6]: 91.2%
- Purity at day 60 [2, 6]: 84.4%
- Purity at day 90 [2, 6]: 79.2%
- Purity at day 0 [2, 7]: 98.6%
- Purity at day 3 [2, 7]: 98.2%
- Purity at day 7 [2, 7]: 97.8%
- Purity at day 15 [2, 7]: 97.3%
- Purity at day 22 [2, 7]: 96.1%
- Purity at day 28 [2, 7]: 95.5%
- Purity at day 60 [2, 7]: 94.5%
- Purity at day 90 [2, 7]: 93.9%
- Purity at day 0 [2, 8]: 98.7%
- Purity at day 3 [2, 8]: 98.4%
- Purity at day 7 [2, 8]: 98.4%
- Purity at day 15 [2, 8]: 98.0%
- Purity at day 22 [2, 8]: 97.5%
- Purity at day 28 [2, 8]: 97.2%
- Purity at day 60 [2, 8]: 96.2%
- Purity at day 90 [2, 8]: 95.8%
- Purity at day 0 [2, 9]: 98.6%
- Purity at day 3 [2, 9]: 98.5%
- Purity at day 7 [2, 9]: 98.3%
- Purity at day 15 [2, 9]: 98.1%
- Purity at day 22 [2, 9]: 97.4%
- Purity at day 28 [2, 9]: 97.1%
- Purity at day 60 [2, 9]: 96.0%
- Purity at day 90 [2, 9]: 95.9%
- Purity at day 0 [2, 10]: 98.7%
- Purity at day 3 [2, 10]: 98.5%
- Purity at day 7 [2, 10]: 98.5%
- Purity at day 15 [2, 10]: 98.2%
- Purity at day 22 [2, 10]: 97.7%
- Purity at day 28 [2, 10]: 97.3%
- Purity at day 60 [2, 10]: 96.7%
- Purity at day 90 [2, 10]: 96.1%
- Purity at day 0 [2, 11]: 98.6%
- Purity at day 3 [2, 11]: 98.4%
- Purity at day 7 [2, 11]: 98.4%
- Purity at day 15 [2, 11]: 98.3%
- Purity at day 22 [2, 11]: 97.5%
- Purity at day 28 [2, 11]: 97.2%
- Purity at day 60 [2, 11]: 96.5%
- Purity at day 90 [2, 11]: 96.2%
- Purity at day 0 [2, 12]: 98.7%
- Purity at day 3 [2, 12]: 98.5%
- Purity at day 7 [2, 12]: 98.5%
- Purity at day 15 [2, 12]: 98.3%
- Purity at day 22 [2, 12]: 98.0%
- Purity at day 28 [2, 12]: 97.1%
- Purity at day 60 [2, 12]: 96.6%
- Purity at day 90 [2, 12]: 96.0%
- Purity at day 0 [2, 13]: 98.5%
- Purity at day 3 [2, 13]: 98.5%
- Purity at day 7 [2, 13]: 98.4%
- Purity at day 15 [2, 13]: 98.1%
- Purity at day 22 [2, 13]: 97.9%
- Purity at day 28 [2, 13]: 97.3%
- Purity at day 60 [2, 13]: 96.7%
- Purity at day 90 [2, 13]: 96.2%
- Purity at day 0 [2, 14]: 98.7%
- Purity at day 3 [2, 14]: 98.7%
- Purity at day 7 [2, 14]: 98.5%
- Purity at day 15 [2, 14]: 98.3%
- Purity at day 22 [2, 14]: 97.8%
- Purity at day 28 [2, 14]: 97.2%
- Purity at day 60 [2, 14]: 96.9%
- Purity at day 90 [2, 14]: 96.3%
- Stability when the concentration is 0.1% or lower ([2]; at 5° C. in 15% acetone): not stable

Compound: CCN(CC)CCOC(=O)CC1=C(C)C(=Cc2ccc([S+](C)[O-])cc2)c2ccc(F)cc21.Cl (stereo not shown) [2-(diethylamino)ethyl 5-fluoro-2-methyl-1-[[4-(methylsulfinyl)phenyl]methylene]-1H-indene-3-acetate•HCl]
- Stability of the solution at a temperature higher than 40° C. and a pH lower than 3 or greater than 6 [1]: not stable
- Purity at Day 3 ([2]; 0.01 wt %, in water at 25° C.): 82.3%
- Purity at Day 7 ([2]; 0.01 wt %, in water at 25° C.): 71.2%
- Purity at Day 14 ([2]; 0.01 wt %, in water at 25° C.): 59.4%
- Purity at Day 21 ([2]; 0.01 wt %, in water at 25° C.): 50.4%
- Purity at Day 28 ([2]; 0.01 wt %, in water at 25° C.): 43.7%
- Purity at hr 0 ([2]; 0.01 wt %, in water at 25° C.): 97.1%
- Purity at Day 3 ([2]; 0.1 wt %, in water at 25° C.): 95.7%
- Purity at Day 7 ([2]; 0.1 wt %, in water at 25° C.): 93.6%
- Purity at Day 14 ([2]; 0.1 wt %, in water at 25° C.): 89.8%
- Purity at Day 21 ([2]; 0.1 wt %, in water at 25° C.): 84.4%
- Purity at Day 28 ([2]; 0.1 wt %, in water at 25° C.): 78.9%
- Purity at hr 0 ([2]; 0.1 wt %, in water at 25° C.): 97.2%
- Purity at Day 3 ([2]; 1 wt %, in water at 25° C.): 96.2%
- Purity at Day 7 ([2]; 1 wt %, in water at 25° C.): 95.2%
- Purity at Day 14 ([2]; 1 wt %, in water at 25° C.): 93.1%
- Purity at Day 21 ([2]; 1 wt %, in water at 25° C.): 91.5%
- Purity at Day 28 ([2]; 1 wt %, in water at 25° C.): 90.1%
- Purity at hr 0 ([2]; 1 wt %, in water at 25° C.): 97.3%
- Purity at Day 3 ([2]; 3 wt %, in water at 25° C.): 96.7%
- Purity at Day 7 ([2]; 3 wt %, in water at 25° C.): 96.3%
- Purity at Day 14 ([2]; 3 wt %, in water at 25° C.): 95.0%
- Purity at Day 21 ([2]; 3 wt %, in water at 25° C.): 94.1%
- Purity at Day 28 ([2]; 3 wt %, in water at 25° C.): 93.1%
- Purity at hr 0 ([2]; 3 wt %, in water at 25° C.): 97.3%
- Purity at Day 3 ([2]; 5 wt %, in water at 25° C.): 97.3%
- Purity at Day 7 ([2]; 5 wt %, in water at 25° C.): 97.1%
- Purity at Day 14 ([2]; 5 wt %, in water at 25° C.): 96.7%
- Purity at Day 21 ([2]; 5 wt %, in water at 25° C.): 96.2%
- Purity at Day 28 ([2]; 5 wt %, in water at 25° C.): 95.4%
- Purity at hr 0 ([2]; 5 wt %, in water at 25° C.): 97.5%
- Purity at Day 3 ([2]; 7 wt %, in water at 25° C.): 97.4%
- Purity at Day 7 ([2]; 7 wt %, in water at 25° C.): 97.3%
- Purity at Day 14 ([2]; 7 wt %, in water at 25° C.): 97.1%
- Purity at Day 21 ([2]; 7 wt %, in water at 25° C.): 96.6%
- Purity at Day 28 ([2]; 7 wt %, in water at 25° C.): 96.4%
- Purity at hr 0 ([2]; 7 wt %, in water at 25° C.): 97.6%
- Purity at Day 3 ([2]; 8 wt %, in water at 25° C.): 97.4%
- Purity at Day 7 ([2]; 8 wt %, in water at 25° C.): 97.2%
- Purity at Day 14 ([2]; 8 wt %, in water at 25° C.): 96.9%
- Purity at Day 21 ([2]; 8 wt %, in water at 25° C.): 96.8%
- Purity at Day 28 ([2]; 8 wt %, in water at 25° C.): 96.5%
- Purity at hr 0 ([2]; 8 wt %, in water at 25° C.): 97.5%
- Purity at Day 3 ([2]; 10 wt %, in water at 25° C.): 97.5%
- Purity at Day 7 ([2]; 10 wt %, in water at 25° C.): 97.3%
- Purity at Day 14 ([2]; 10 wt %, in water at 25° C.): 97.0%
- Purity at Day 21 ([2]; 10 wt %, in water at 25° C.): 97.0%
- Purity at Day 28 ([2]; 10 wt %, in water at 25° C.): 96.7%
- Purity at hr 0 ([2]; 10 wt %, in water at 25° C.): 97.5%
- Purity at Day 3 ([2]; 15 wt %, in water at 25° C.): 97.4%
- Purity at Day 7 ([2]; 15 wt %, in water at 25° C.): 97.4%
- Purity at Day 14 ([2]; 15 wt %, in water at 25° C.): 97.1%
- Purity at Day 21 ([2]; 15 wt %, in water at 25° C.): 97.1%
- Purity at Day 28 ([2]; 15 wt %, in water at 25° C.): 96.8%
- Purity at hr 0 ([2]; 15 wt %, in water at 25° C.): 97.6%
- Purity at Day 3 ([2]; 20 wt %, in water at 25° C.): 97.4%
- Purity at Day 7 ([2]; 20 wt %, in water at 25° C.): 97.6%
- Purity at Day 14 ([2]; 20 wt %, in water at 25° C.): 97.2%
- Purity at Day 21 ([2]; 20 wt %, in water at 25° C.): 97.1%
- Purity at Day 28 ([2]; 20 wt %, in water at 25° C.): 96.8%
- Purity at hr 0 ([2]; 20 wt %, in water at 25° C.): 97.6%
- Purity at Day 3 ([2]; 30 wt %, in water at 25° C.): 97.5%
- Purity at Day 7 ([2]; 30 wt %, in water at 25° C.): 97.5%
- Purity at Day 14 ([2]; 30 wt %, in water at 25° C.): 97.3%
- Purity at Day 21 ([2]; 30 wt %, in water at 25° C.): 97.0%
- Purity at Day 28 ([2]; 30 wt %, in water at 25° C.): 96.7%
- Purity at hr 0 ([2]; 30 wt %, in water at 25° C.): 97.7%
- Purity at Day 3 ([2]; 50 wt %, in water at 25° C.): 97.5%
- Purity at Day 7 ([2]; 50 wt %, in water at 25° C.): 97.5%
- Purity at Day 14 ([2]; 50 wt %, in water at 25° C.): 97.2%
- Purity at Day 21 ([2]; 50 wt %, in water at 25° C.): 96.8%
- Purity at Day 28 ([2]; 50 wt %, in water at 25° C.): 96.8%
- Purity at hr 0 ([2]; 50 wt %, in water at 25° C.): 97.7%
- Stability when the concentration is 0.1% or lower ([2]; in water at 25° C.): not stable
